# Source: patent publication US9206186B2, “2-phenoxy- and 2-phenylsulfonamide derivatives with CCR3 antagonistic activity for the treatment of inflammatory or immunological disorders” (AXIKIN PHARMACEUTICALS, INC., priority 2003, dated 2015)
# Structures can show the parent of a compound that is named as a salt.
# What was measured:
# Human CCR3 = target: T1, Human CCR3 (Homo sapiens, UniProt P51677); assay: Calcium mobilization assay (Ca2+), eotaxin-stimulated human CCR3-transformed K562 cells; format: cell-based; settings: compounds of about 40 to 90% purity, read-out: Activity grade IC50
# T1 construct: The cloned CCR3 cDNA was constructed with pcDNA3 vector and transfected into a K562 cell line; expressed in transfected cells
# T1 sequence (P51677 1-355): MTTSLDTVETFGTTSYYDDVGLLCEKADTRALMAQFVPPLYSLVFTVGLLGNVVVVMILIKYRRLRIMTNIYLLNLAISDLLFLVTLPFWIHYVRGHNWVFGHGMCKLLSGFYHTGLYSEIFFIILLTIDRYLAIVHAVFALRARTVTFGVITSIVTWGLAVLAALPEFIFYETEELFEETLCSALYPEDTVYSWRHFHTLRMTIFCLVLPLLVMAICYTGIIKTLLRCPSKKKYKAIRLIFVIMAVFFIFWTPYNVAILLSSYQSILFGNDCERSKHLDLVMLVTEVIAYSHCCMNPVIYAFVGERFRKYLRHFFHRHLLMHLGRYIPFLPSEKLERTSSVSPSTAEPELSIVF
# Method: • Human CCR3-transformed K562 cells were used. The cloned CCR3 cDNA was constructed with pcDNA3 vector and transfected into a K562 cell line. The human CCR3-transformed K562 cells were maintained in RPMI-1640 (Cat.#22400-089, Life Technologies) supplemented with 10% FCS (Cat.#A-1115-L, Hyclone), 55 μM 2-mercaptoethanol (Cat.#21985-023, Life Technologies), 1 mM sodium pyruvate (Cat.#11360-070, Life Technologies), 100 units/ml of penicillin G and 100 μg/ml of streptomycin (Cat.#15140-122, Life Technologies), and 0.4 mg/ml of Geneticin (Cat.#10131-035, Life Technologies) (hereinafter called “culture medium”). Before the receptor binding assay, cells were pretreated with 5 mM sodium butyrate (Cat.#193-01522, Wako)-containing the culture medium (2×10^5 cells/ml) for 20-24 hours to increase the expression of CCR3. (2) Receptor Binding Assay • Butyrate-pretreated cells, suspended in binding buffer (25 mM HEPES pH 7.6, 1 mM CaCl2, 5 mM MgCl2, 0.5% BSA, 0.1% NaN3) at a cell density of 2×10^6 cells/ml, were added into 60 μl/well in the 96-well round bottom polypropylene plate (Cat.#3365, Costar). Compounds, diluted with the binding buffer (4-times higher concentration of the final concentration), were added into 30 μl/well in the polypropylene plate. [^125I]-labeled human eotaxin (Cat.#IM290, Amersham Pharmacia Biotech), diluted with the binding buffer at the concentration of 0.4 nM (final concentration; 0.1 nM), was added into 30 μl/well in the polypropylene plate. Total 120 μl/well of binding reaction mixture (60 μl/well of cell suspension, 30 μl/well of compound solution, and 30 μl/well of [^125I]-labeled eotaxin) were incubated in the polypropylene plate for 1 hour at room temperature after the incubation, 100 μl/well of the reaction mixture was transferred to a filtration plate (Cat.#MAFB-N0B, Millipore), and washed with the washing buffer (25 mM HEPES pH 7.6, 1 mM CaCl2, 5 mM MgCl2, 0.5% BSA, 0.1% NaN3, 0.5 M NaCl) twice. The 96-well filtration plate was pretreated with 100 μl/well of 0.5% polyethylenimine (Cat.#P-3143, Sigma) for 2-4 hours at room temperature and washed with the washing buffer twice before use. The non-specific binding was determined by parallel incubation in the presence of 500 nM of non-labeled eotaxin (Cat.#23209, Genzyme Techne). The radioactivities remained on the filter were measured by liquid scintillation counter (TopCount™, Packard) after an addition of 45 μl/well of scintillant (Microscint20, Cat.#6013621, Packard). The inhibition percent at each concentration of compound was calculated, and IC50 values were determined from the inhibition curve. [Determination of IC50 Values of Compounds in Calcium Mobilization Assay] (1) Cell • Human CCR3-transformed K562 cells were used. The human CCR3-transformed K562 cells were maintained in RPMI-1640 supplemented with 10% FCS, 55 μM 2-mercaptoethanol (Cat.#21985-023, Life Technologies), 1 mM sodium pyruvate, 100 units/ml of penicillin G and 100 μg/ml of streptomycin, and 0.4 mg/ml of Geneticin. Before the calcium mobilization assay, cells were pretreated with 5 mM sodium butyrate-containing the culture medium (2×10^5 cells/ml) for 20-24 hours to increase the expression of CCR3. (2) Calcium Mobilization Assay • Butyrate-pretreated cells were loaded with Fluo-3AM (Cat.#F-1242, Molecular Probes) in loading buffer (Hanks' solution Cat.#05906 Nissui, 20 mM HEPES pH 7.6, 0.1% BSA, 1 mM probenecid Cat.#P-8761 Sigma, 1 μM Fluo-3AM, 0.01% pluronic F-127 Cat.#P-6866 Molecular Probes) at a cell density of 1×10^7 cells/ml. Then, cells were washed with calcium assay buffer (Hanks' solution Cat.#05906 Nissui, 20 mM HEPES pH 7.6, 0.1% BSA, 1 mM Probenecid Cat.#P-8761 Sigma). The cell suspension (3.3×10^6 cells/ml) was added into 60 μl/well in the 96-well clear bottom black plate (Cat.#3904, Costar). Compounds, diluted (5-times concentration of the final concentration) with the calcium assay buffer, were added into 20 μl/well in the plate 10 minutes before assay. […]
SMILES,IC50 (Human CCR3),melting point
"N#Cc1ccc(Oc2cc(Cl)cc(Cl)c2)c(S(=O)(=O)N[C@H]2CN3CCC2CC3)c1 [Example 1-1, N—(R)-(+)-(1-aza-bicyclo[2.2.2]oct-3-yl)-5-cyano-2-(3,5-dichloro-phenoxy)-benzenesulfonamide]",< 100 nM,
"CN(C)CCN(CCN1C(=O)CCC1=O)S(=O)(=O)c1cc(C#N)ccc1Oc1cc(Cl)cc(Cl)c1 [Example 1-2, 5-cyano-2-(3,5-dichloro-phenoxy)-N-(2-dimethylamino-ethyl)-N-[2-(2,5-dioxo-pyrrolidin-1-yl)-ethyl]-benzenesulfonamide]",< 100 nM,
"N#Cc1ccc(Oc2cc(Cl)cc(Cl)c2)c(S(=O)(=O)N2CCN[C@@H](Cc3c[nH]c4ccccc34)C2)c1 [Example 1-3, 4-(3,5-dichloro-phenoxy)-3-[(3S)-(1H-indol-3-ylmethyl)-piperazine-1-sulfonyl]-benzonitrile]",< 100 nM,
"N#Cc1ccc(Oc2cc(Cl)cc(Cl)c2)c(S(=O)(=O)N2CCNCC2Cn2cncn2)c1 (stereo not shown) [Example 1-4, 4-(3,5-dichlorophenoxy)-3-{[2-(1H-1,2,4-triazol-1-ylmethyl)-1-piperazinyl]sulfonyl}benzonitrile hydrochloride]",< 100 nM,
N#Cc1ccc(Oc2cc(Cl)cc(Cl)c2)c(S(=O)(=O)N2CCCCC2)c1 [Example 1-5],> 500 nM,171 to 172 °C
N#Cc1ccc(Oc2cc(Cl)cc(Cl)c2)c(S(=O)(=O)N2CC3CCN(Cc4ccccc4)C3C2)c1 (stereo not shown) [Example 1-6],< 100 nM,
CS(=O)(=O)NCC1CN(S(=O)(=O)c2cc(C#N)ccc2Oc2cc(Cl)cc(Cl)c2)CCN1 (stereo not shown) [Example 1-7],< 100 nM,
CC(=O)NCC1CN(S(=O)(=O)c2cc(C#N)ccc2Oc2cc(Cl)cc(Cl)c2)CCN1 (stereo not shown) [Example 1-8],< 100 nM,
CS(=O)(=O)NCC1CNCCN1S(=O)(=O)c1cc(C#N)ccc1Oc1cc(Cl)cc(Cl)c1 (stereo not shown) [Example 1-9],< 100 nM,
CC(=O)NCC1CNCCN1S(=O)(=O)c1cc(C#N)ccc1Oc1cc(Cl)cc(Cl)c1 (stereo not shown) [Example 1-10],< 100 nM,
N#Cc1ccc(Oc2cc(Cl)cc(Cl)c2)c(S(=O)(=O)N2CCC(N3C[C@H](O)[C@@H](O)C3)CC2)c1 [Example 1-11],< 100 nM,137 to 139 °C
COC(=O)C1CN(S(=O)(=O)c2cc(C#N)ccc2Oc2cc(Cl)cc(Cl)c2)CCCN1 (stereo not shown) [Example 1-12],100 to 500 nM,
COC(=O)[C@@H]1C[C@H](N2CCCC2)CN1S(=O)(=O)c1cc(C#N)ccc1Oc1cc(Cl)cc(Cl)c1 [Example 1-13],< 100 nM,
N#Cc1ccc(Oc2cc(Cl)cc(Cl)c2)c(S(=O)(=O)N2CC[C@H](NCCO)C2)c1 [Example 1-16],< 100 nM,155 to 156 °C
COC(=O)C1CNCCCN1S(=O)(=O)c1cc(C#N)ccc1Oc1cc(Cl)cc(Cl)c1 (stereo not shown) [Example 1-22],< 100 nM,
N#Cc1ccc(Oc2cc(Cl)cc(Cl)c2)c(S(=O)(=O)N2CCNC[C@@H]2Cc2c[nH]c3ccccc23)c1 [Example 1-26],< 100 nM,116 to 117 °C
N#Cc1ccc(Oc2cc(Cl)cc(Cl)c2)c(S(=O)(=O)N2CCNCC2CN2C(=O)CCC2=O)c1 (stereo not shown) [Example 1-27],< 100 nM,
CS(=O)(=O)NCC1CN(S(=O)(=O)c2cc(C#N)ccc2Oc2cc(Cl)cc(Cl)c2)CCCN1 (stereo not shown) [Example 1-28],< 100 nM,
CS(=O)(=O)NCC1CNCCCN1S(=O)(=O)c1cc(C#N)ccc1Oc1cc(Cl)cc(Cl)c1.Cl (stereo not shown) [Example 1-29],< 100 nM,183 to 184 °C

# More lines, now with the values ahead:
IC50 (Human CCR3),melting point,SMILES
< 100 nM,169 to 170 °C,CC(=O)c1ccc(Oc2cc(Cl)cc(Cl)c2)c(S(=O)(=O)N2CCNCC2)c1 [Example 1-31]
< 100 nM,,N#Cc1ccc(Oc2cc(Cl)cc(Cl)c2)c(S(=O)(=O)N[C@@H]2CN3CCC2CC3)c1 [Example 1-32]
100 to 500 nM,224 to 225 °C,N#Cc1ccc(Oc2cc(Cl)cc(Cl)c2)c(S(=O)(=O)N2CCC(N3CCC[C@H]3C(=O)O)CC2)c1 [Example 1-33]
< 100 nM,103 °C,CC(C)(O)[C@@H]1CCCN1C1CCN(S(=O)(=O)c2cc(C#N)ccc2Oc2cc(Cl)cc(Cl)c2)CC1 [Example 1-34]
< 100 nM,,N#Cc1ccc(Oc2cc(Cl)cc(Cl)c2)c(S(=O)(=O)N2CCCCC2CN2CCC(O)C2)c1 (stereo not shown) [Example 1-35]
< 100 nM,,N#Cc1ccc(Oc2cc(Cl)cc(Cl)c2)c(S(=O)(=O)N2CCNC(Cn3ncnn3)C2)c1 (stereo not shown) [Example 1-36]
< 100 nM,184 to 185 °C (dec.),Cl.N#Cc1ccc(Oc2cc(Cl)cc(Cl)c2)c(S(=O)(=O)N2CCNC(Cn3cncn3)C2)c1 (stereo not shown) [Example 1-37]
< 100 nM,,CCN1CCCN(S(=O)(=O)c2cc(C#N)ccc2Oc2cc(Cl)cc(Cl)c2)C(C(=O)OC)C1 (stereo not shown) [Example 1-39]
< 100 nM,,N#Cc1ccc(Oc2cc(Cl)cc(Cl)c2)c(S(=O)(=O)N(CCN2CCCC2)C2CCCC2)c1 [Example 1-42]
< 100 nM,123 to 125 °C,N#Cc1ccc(Oc2cc(Cl)cc(Cl)c2)c(S(=O)(=O)N2CCNC(CN3C(=O)CCC3=O)C2)c1 (stereo not shown) [Example 1-43]
< 100 nM,121 °C,N#Cc1ccc(Oc2cc(Cl)cc(Cl)c2)c(S(=O)(=O)N2CCC(N3CCCC3)C(CN3C(=O)CCC3=O)C2)c1 (stereo not shown) [Example 1-44]
< 100 nM,124 °C,N#Cc1ccc(Oc2cc(Cl)cc(Cl)c2)c(S(=O)(=O)N2CCC(N3CCC[C@H]3CO)CC2)c1 [Example 1-45]
< 100 nM,157 °C,N#Cc1ccc(Oc2cc(Cl)cc(Cl)c2)c(S(=O)(=O)N2CCC[C@H]2CN2CCC[C@H]2CO)c1 [Example 1-46]
> 500 nM,,"N#Cc1ccc(Oc2cc(Cl)cc(Cl)c2)c(S(=O)(=O)C2CCNCC2)c1 [Example 2-1, 4-(3,5-Dichloro-phenoxy)-3-(piperidine-4-sulfonyl)-benzonitrile]"
